Measurements published in publication PMC6110922, “Inhibition of Chloride Intracellular Channel 1 (CLIC1) as Biguanide Class-Effect to Impair Human Glioblastoma Stem Cell Viability” (Frontiers in Pharmacology, 2018).
Where a name gives a salt, the structure may show the parent alone.

Biological target: T1, chloride intracellular channel 1 (CLIC1) (Homo sapiens, UniProt O00299)
T1 construct: endogenous channel in GBM2 and GBM4 glioblastoma stem cells
Assay: perforated-patch whole-cell patch clamp, CLIC1 (IAA94-sensitive) current
Type: cell-based

Row | SMILES | perforated-patch whole-cell patch clamp, CLIC1 (IAA94-sensitive) current [mM]
1 | CC1(C)N=C(N)N=C(N)N1c1ccc(Cl)cc1 [cycloguanil] | 0.5
2 | CN(C)C(=N)NC(=N)N [metformin, 1,1-dimethylbiguanide hydrochloride] | 10
